From the supplement of paper PMC8671470

Experiments:
Experiment in all cases: cell viability (% survival relative to DMSO control, bortezomib = 0%); higher = less cytotoxic
Settings in all cases: 72 h
[1] = system: NOMO-1
Summary of the method: (§1)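 Fifteen myeloid leukaemia cell lines (10 AML, 5 CML) were seeded at a density titrated to the linear growth range into 384-well plates pre-printed with compounds at 1, 10, 100, 1000 or 10000 nM in duplicate. Plates were incubated for 72 h at 37 °C with 5% CO2. Viability was then read by CellTiter-Glo luminescence. Each value is percent survival averaged over the duplicates, with vehicle set to 100% and a 10 µM positive control to 0%.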

[2] = system: MV4-11
Summary of the method: as §1

[3] = system: THP-1
Summary of the method: as §1

[4] = system: HEL
Summary of the method: as §1

Compound | cell viability ([1]; 1 nM) [%] | cell viability ([1]; 10 nM) [%] | cell viability ([1]; 100 nM) [%] | cell viability ([1]; 1000 nM) [%] | cell viability ([1]; 10000 nM) [%] | cell viability ([2]; 1 nM) [%] | cell viability ([2]; 10 nM) [%] | cell viability ([2]; 100 nM) [%] | cell viability ([2]; 1000 nM) [%] | cell viability ([2]; 10000 nM) [%] | cell viability ([3]; 1 nM) [%] | cell viability ([3]; 10 nM) [%] | cell viability ([3]; 100 nM) [%] | cell viability ([3]; 1000 nM) [%] | cell viability ([3]; 10000 nM) [%] | cell viability ([4]; 1 nM) [%] | cell viability ([4]; 10 nM) [%] | cell viability ([4]; 100 nM) [%] | cell viability ([4]; 1000 nM) [%] | cell viability ([4]; 10000 nM) [%]
Oc1cc(Cl)ccc1Oc1ccc(Cl)cc1Cl [Triclosan] | 102 | 89 | 99.3 | 104 | 105 | 110 | 82.5 | 104 | 93.7 | 82.1 | 92.7 | 98.5 | 103 | 108 | 92 | 118 | 110 | 86.3 | 105 | 108
COc1cc2c(NC3CCN(C)CC3)nc(N3CCCN(C)CC3)nc2cc1OCCCN(C)C [UNC0224] | 103 | 111 | 98.4 | 95.2 | 90.4 | 97.8 | 98.7 | 95.2 | 91.4 | 64 | 103 | 102 | 93.8 | 93 | 79.7 | 84.8 | 114 | 106 | 98.3 | 88.6
CC(C)C[C@H](NC(=O)[C@@H](O)[C@H](N)Cc1ccccc1)C(=O)O [Ubenimex] | 105 | 105 | 94.8 | 95.5 | 100 | 100 | 103 | 109 | 99.8 | 143 | 89.2 | 97.9 | 93.1 | 84.8 | 94.8 | 107 | 106 | – | 95.4 | 106
O=P(O)(O)C(O)(Cn1ccnc1)P(=O)(O)O [Zoledronic acid] | 98.8 | 101 | 95.6 | 103 | 94.6 | 94.7 | 104 | 88.7 | 101 | 81.5 | 104 | 105 | 91.5 | 89.1 | 99.5 | 90.6 | 92.7 | 101 | 94.9 | 99.3
